{"source": "patent US6156340A", "about": "“Orally administrable time release drug containing products” (Duquesne University of the Holy Ghost, priority 1996, dated 2000)", "origin": "cited, not measured here", "key": {"[1]": {"conditions": "repeated oral administration, long term therapy"}, "[2]": {"experiment": "not given", "remark": "listed apart in the source"}}, "data": [{"compound": "O=C(O)Cc1ccccc1Nc1c(Cl)cccc1Cl", "note": "[diclofenac sodium]", "values": [{"measurement": "water solubility", "value": "high water solubility"}, {"measurement": "side effects", "setting": "[1]", "value": "frequently causes gastrointestinal disturbances and may cause kidney failure"}, {"measurement": "absorption", "setting": "[2]; following oral administration", "value": "completely absorbed"}, {"measurement": "metabolism", "setting": "[2]; in vivo", "value": "extensive metabolism"}, {"measurement": "elimination half-life in plasma", "setting": "[2]; plasma", "value": "relatively short elimination half-life in plasma"}]}]}
